From patent US4520029A, “Farnesene derivatives, mucosal stabilizing compositions and method of manufacturing the same” (Kotobuki Seiyaku Co., Ltd., priority 1980, dated 1985)

How the values were obtained:
[1] = Acute toxicity in ddY strain mice, up and down method, oral; conditions: mouse, in vivo, suspended in 1% methyl cellulose, given orally, observation 24 hours, read-out: LD50 (per os)
Experimental: Acute toxicity of the compounds of the present invention in ddY strain mice was determined by the up and down method, with observation for 24 hours. The compounds in this experiment were suspended in 1% methyl cellulose and given orally.

[2] = tested on: gastric epithelial cell; experiment: Gastric epithelial cell stabilizing effect in pylorus-ligated rats (NANA in gastric juice); type: in vivo, rat; conditions: male Donryu rats, oral three times a day for five days, 8 hours after pylorus ligation; for NANA content in gastric juice, free: control 22.5, * P < 0.05 vs control (V, VI and VII all marked *); for NANA content in gastric juice, bound: control 93.3; for NANA content in gastric juice, bound / NANA content in gastric juice, total: * P < 0.05 vs control (only V marked *); for NANA content in gastric juice, total: control 115.8
Experimental: The investigation of the gastric epithelial cell stabilizing effects of these compounds were examined in rats. Male Donryu strain rats, weighing about 200 g, were given the test compound orally three times a day for five days. On the fifth day the animals were fasted for 24 hours, and submitted to pylorus ligation under light ether anesthesia. The test compounds were given just after pylorus ligation orally. After 8 hours of ligation, the rats were sacrificed and the volume of gastric juice was measured. After centrifuging 6 ml of this gastric juice at 5000 r.p.m., 2 ml of the resulting supernatant was submitted to N-acetyl neuraminic acid (NANA) determination according to the method of D. Aminoff (D. Aminoff et al., Biochem. J. […], 384-392 (1961)).

[3] = tested on: stress ulcer; experiment: Stress ulcer in rats (anti-ulcerative action); type: in vivo, rat; conditions: 100 mg/kg per os, male Wister rats, 30 minutes before the stress; stressing 18 hours; control 4.6 ± 0.70
Experimental: To study the anti-ulcerative actions of these compounds of the present invention further, the stress ulcer was selected. Male Wister rats, weighing 200-250 g were subjected to stress according to Takagi et al. (Chem. Pharm. Bull 12, 465, 1964). These compounds were suspended in 1% methyl cellulose and were administered to the rat at a dose of 100 mg/kg body weight per os, 30 minutes before the stress. After stressing for 18 hours, the animals were killed by a blow on the head. The removed stomach was filled with 1% formalin solution, placed in 1% formalin solution for 15 minutes and was then cut open along the greater curvature and examined for lesion to obtain the ulcer index. The ulcer index was determined in six grades (0-5; 5 implying perforation of stomach).

[4] = tested on: carragenin-induced rat paw edema; experiment: Carragenin-induced rat paw edema (anti-inflammatory effect); type: in vivo; conditions: 300 mg/kg oral, Wister rat, maximum percentage inhibition during 4 hours after administration
Experimental: The anti-inflammatory effect of these compounds on carragenin-induced rat paw edema was examined in accordance with the method of C. A. Winter (J. Pharmacol. 141, 369, […]. The compounds of the present invention were suspended in 1% methyl-cellulose and orally administered at a dose of 300 mg/kg to Wister rat, weighing about 140 g. The maximum percentage inhibition during 4 hours after administration was calculated as follows: [formula] The results are shown in Table 3.

Structure (SMILES) | LD50 at 24 h [1] [mg/kg] | NANA content in gastric juice, free [2] [µg/mL] | NANA content in gastric juice, bound [2] [µg/mL] | NANA content in gastric juice, total [2] [µg/mL] | Score (ulcer index, six grades 0-5; 5 implying perforation of stomach) [3] | Maximum inhibition [4] [%]
CC(C)=CCCC(C)=CCCC(C)=CCNC(=O)CC=C(C)CCC=C(C)CCC=C(C)C [Compound VI, N-Farnesyl farnesyl carboxamide] | 18700 | 18.3 | 87.4 | 105.7 | 2.3 ± 0.72 | 30.1
CC(C)=CCCC(C)=CCCC(C)=CCNC(=O)OCC=C(C)CCC=C(C)CCC=C(C)C [Compound VII, N-Farnesyl farnesyl carbamate] | 20200 | 16.7 | 81.3 | 98.3 | 2.1 ± 0.41 | 23.7
CC(C)=CCCC(C)=CCCC(C)=CCOC(=O)CC=C(C)CCC=C(C)CCC=C(C)C [Compound V, Farnesyl farnesyl carboxylate] | 24500 | 17.6 | 74.5 | 92.1 | 1.8 ± 0.50 | 35.8
